Reference: article PMC6325200, “Effects of Microplate Type and Broth Additives on Microdilution MIC Susceptibility Assays” (Antimicrobial Agents and Chemotherapy, 2018)
Values after ≈ are worked out from the molar mass of the structure shown. Where a SMILES comes first, the peptide text is derived from it. Bridges are numbered along the chain shown (N, C = ends). [ ]: non-standard residue; d: D form. The star is where a group is joined. X1 = CC[C@H](C)CCCCC(=O)*; Dab = NCC[C@H](N)C(=O)O

Tests used:
[1] = system: E. coli ATCC 25922; assay: microbe, parasite or virus in culture
Protocol: A positive control of a row of just the bacteria and a negative control of only the medium were included for every plate tested.
The compounds along with standard antibiotics were serially diluted 2-fold across the 96-well plates. […] A sample of each culture was then diluted 40-fold in fresh MH broth (in presence and absence of Tween) and incubated at 37°C for 2 to 3 h.
For experiments in the presence of surfactant, 2% beractant (25 mg/ml) was added to the mid-log-phase cultures and mixed gently and added to all the 96-well plates. For experiments in the presence of serum, a mixture of 50% of human serum along with 50% MHB was prepared and used throughout the experiment.

[2] = system: A. baumannii ATCC 19606; assay: microbe, parasite or virus in culture; settings: n = 2
Method in brief: (§1)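 Every plate included two controls, one row of bacteria alone and one of medium only. Test agents and standard antibiotics underwent twofold dilution series in 96-well format, and cultures were diluted 40-fold into MH broth in the presence or absence of Tween before 2–3 h at 37°C.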

[3] = system: K. pneumoniae ATCC 13883; assay: microbe, parasite or virus in culture; settings: n = 2
Method in brief: as §1

[4] = system: P. aeruginosa ATCC 10145; assay: microbe, parasite or virus in culture; settings: n = 2
Method in brief: as §1

[5] = system: E. coli; settings: literature value; cited from earlier work
[6] = system: over 200 strains; settings: 0.002% polysorbate added; cited from earlier work
Description: Members of the lipopeptide polymyxin class of antibiotics (polymyxin B [compound 7a] and polymyxin E [or colistin, compound 7b]) are important last-line therapeutic agents against many multidrug-resistant Gram-negative bacteria ([27][–][31]). They consist of an N-terminal fatty acid side chain that is attached to a polycationic deca-peptide backbone (Fig. 1) with physicochemical properties similar to those of the lipoglycopeptides. These structural features confer amphipathicity, which is a key feature of many other cationic antimicrobial peptides (CAMPs) ([32][–][34]). As mentioned earlier, p ...

[7] = literature values, reference given; cited from earlier work
Description: Other assay additives can affect MIC values. […] Plasma protein binding has been implicated as a major factor limiting the active free concentration of many clinically important antibiotics ([37][–][42]).

With `CC[C@H](C)CCCCC(=O)N[C@@H](CCN)C(=O)N[C@H](C(=O)N[C@@H](CCN)C(=O)N[C@H]1CCNC(=O)[C@H]([C@@H](C)O)NC(=O)[C@H](CCN)NC(=O)[C@H](CCN)NC(=O)[C@H](CC(C)C)NC(=O)[C@@H](Cc2ccccc2)NC(=O)[C@H](CCN)NC1=O)[C@@H](C)O` [Polymyxin B, polymyxin B] (X1-[Dab]T[Dab][Dab][Dab][dF]L[Dab][Dab]T; lactam 4-C (inferred); N-terminus assumed) the MIC ([1]; Corning NBS, MH + 2% LHB, 2% LS, n = 2) was ≤0.03 µg/mL, the MIC ([1]; Corning NBS, MH + 2% LHB, 50% HS, n = 2) was ≤0.03 µg/mL and the MIC ([1]; Corning NBS, MH + 2% LHB, no additive, n = 2) was ≤0.03 µg/mL. The MIC ([1]; Corning NBS, MH + T80, 2% LS, n = 2) was ≤0.03 µg/mL, the MIC ([1]; Corning NBS, MH + T80, 50% HS, n = 2) was 0.03 to 0.06 µg/mL and the MIC ([1]; Corning NBS, MH, 2% LS, n = 2) was ≤0.03 µg/mL. For the same compound, the MIC ([1]; Corning NBS, MH, 50% HS, n = 2) was ≤0.03 µg/mL, the MIC ([1]; Corning PS plate, MHB +0.002% T80, no further additive, n = 2) was 0.03 to 0.25 µg/mL and the MIC ([1]; Corning PS plate, MHB −T80, no additive, n = 2) was 0.06 µg/mL (≈ 0.0499 µM). It also gave an MIC ([1]; Corning PS, MH + 2% LHB, 2% LS, n = 2) of 0.06 µg/mL, an MIC ([1]; Corning PS, MH + 2% LHB, 50% HS, n = 2) of 0.03 to 0.06 µg/mL and an MIC ([1]; Corning PS, MH + 2% LHB, no additive, n = 2) of 2 to 8 µg/mL. It also gave an MIC ([1]; Corning PS, MH + T80, 2% LS, n = 2) of 0.06 to 0.125 µg/mL, an MIC ([1]; Corning PS, MH + T80, 50% HS, n = 2) of 0.03 to 0.06 µg/mL and an MIC ([1]; Corning PS, MH, 2% LS, n = 2) of 0.06 to 0.125 µg/mL. The MIC ([1]; Corning PS, MH, 50% HS, n = 2) was ≤0.03 µg/mL, the MIC ([1]; Corning TC plate, MHB +0.002% T80, no further additive, n = 2) was 2 µg/mL (≈ 1.66 µM) and the MIC ([1]; Corning TC plate, MHB −T80, no additive, n = 2) was 1 to 2 µg/mL. For the same compound, the MIC ([1]; Corning TC, MH + 2% LHB, 2% LS, n = 2) was 2 to 8 µg/mL, the MIC ([1]; Corning TC, MH + 2% LHB, 50% HS, n = 2) was 4 µg/mL and the MIC ([1]; Corning TC, MH + 2% LHB, no additive, n = 2) was 0.125 µg/mL. The MIC ([1]; Corning TC, MH + T80, 2% LS, n = 2) was 2 to 4 µg/mL, the MIC ([1]; Corning TC, MH + T80, 50% HS, n = 2) was 1 to 4 µg/mL and the MIC ([1]; Corning TC, MH, 2% LS, n = 2) was 4 µg/mL (≈ 3.32 µM). For the same compound, the MIC ([1]; Corning TC, MH, 50% HS, n = 2) was 0.25 to 0.5 µg/mL, the “MIC” value ([1]; NBS plates) was ≤ 0.03 µg/mL and the MIC ([1]; Nunc PS plate, MHB +0.002% T80, n = 2) was 0.03 to 0.06 µg/mL. The MIC ([1]; Nunc PS plate, MHB −T80, n = 2) was 0.125 to 0.25 µg/mL, the MIC ([1]; Nunc U TC plate, MHB +0.002% T80, n = 2) was 2 to 4 µg/mL and the MIC ([1]; Nunc U TC plate, MHB −T80, n = 2) was 1 to 4 µg/mL. For the same compound, the MIC ([1]; Nunc flat TC plate, MHB +0.002% T80, n = 2) was 2 µg/mL (≈ 1.66 µM), the MIC ([1]; Nunc flat TC plate, MHB −T80, n = 2) was 1 µg/mL (≈ 0.831 µM) and the MIC ([1]; Trek PS plate, MHB +0.002% T80, no further additive, n = 2) was 0.03 to 0.06 µg/mL. For the same compound, the MIC ([1]; Trek PS plate, MHB −T80, no additive, n = 2) was 0.06 to 0.125 µg/mL, the MIC ([1]; Trek PS, MH + 2% LHB, 2% LS, n = 2) was ≤0.03 µg/mL and the MIC ([1]; Trek PS, MH + 2% LHB, 50% HS, n = 2) was ≤0.03 µg/mL. It also gave an MIC ([1]; Trek PS, MH + 2% LHB, no additive, n = 2) of 0.03 to 0.25 µg/mL, an MIC ([1]; Trek PS, MH + T80, 2% LS, n = 2) of 0.03 to 0.06 µg/mL and an MIC ([1]; Trek PS, MH + T80, 50% HS, n = 2) of 0.03 to 0.125 µg/mL. The MIC ([1]; Trek PS, MH, 2% LS, n = 2) was 0.5 to 1 µg/mL, the MIC ([1]; Trek PS, MH, 50% HS, n = 2) was ≤0.03 µg/mL and the MIC ([2]; Corning NBS, MHB +T80) was ≤ 0.03 µg/mL. For the same compound, the MIC ([2]; Corning NBS, MHB -T80) was ≤ 0.03 µg/mL, the MIC ([2]; Corning PS, MHB +T80) was ≤ 0.03 µg/mL and the MIC ([2]; Corning PS, MHB -T80) was 0.06 to 0.125 µg/mL. For the same compound, the MIC ([2]; Corning TC, MHB +T80) was 2 to 4 µg/mL, the MIC ([2]; Corning TC, MHB -T80) was 0.5 to 1 µg/mL and the MIC ([3]; Corning NBS, MHB +T80) was ≤ 0.03 µg/mL. It also gave an MIC ([3]; Corning NBS, MHB -T80) of 0.03 to 0.125 µg/mL, an MIC ([3]; Corning PS, MHB +T80) of 0.03 to 0.06 µg/mL and an MIC ([3]; Corning PS, MHB -T80) of 0.06 to 0.25 µg/mL. It also gave an MIC ([3]; Corning TC, MHB +T80) of 1 µg/mL (≈ 0.831 µM), an MIC ([3]; Corning TC, MHB -T80) of 1 µg/mL (≈ 0.831 µM) and an MIC ([4]; Corning NBS, MHB +T80) of 0.03 to 0.125 µg/mL. The MIC ([4]; Corning NBS, MHB -T80) was 0.03 to 0.06 µg/mL, the MIC ([4]; Corning PS, MHB +T80) was 0.5 to 1 µg/mL and the MIC ([4]; Corning PS, MHB -T80) was 0.25 to 1 µg/mL. The MIC ([4]; Corning TC, MHB +T80) was 2 to 4 µg/mL, the MIC ([4]; Corning TC, MHB -T80) was 1 to 4 µg/mL and the “MIC (literature)” value [5] was 0.25–1 ([73]) µg/ml. The “more potent MICs with surfactant present” value [6] was 4- to 8 fold and the protein binding [7] was 50 to 60%.
